Data: the supplement of paper PMC10949913

Experiments:
Details in all cases: 48 h
[1] = test system: CU-ACC1; assay: area under concentration-response curve (viability) (AUC (a.u.)); higher = less active
Summary of the method: (§1)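 Three adrenocortical carcinoma cell lines were seeded at 500–1,000 cells/well in 5 µL medium in 1,536-well plates. 23 nL of each MIPE 5.0 library compound was added at 11 concentrations. After 48 h (per the protocol name), CellTiter-Glo was added for 15 minutes at room temperature and luminescence was read. Signals were normalised per plate to vehicle and empty-well controls. AC50 and area under the curve came from fitted concentration-response curves, keeping only inhibitory or non-responding curve classes.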

[2] = test system: CU-ACC2; assay: as above
Summary of the method: as §1

[3] = test system: CU-ACC1; assay: AC50 viability; higher = less potent
Summary of the method: as §1

[4] = test system: CU-ACC2; assay: AC50 viability; higher = less potent
Summary of the method: as §1

[5] = test system: NCI-H295R; assay: area under concentration-response curve (viability) (AUC (a.u.)); higher = less active
Summary of the method: as §1

[6] = test system: NCI-H295R; assay: AC50 viability; higher = less potent
Summary of the method: as §1

| SMILES | area under concentration-response curve [1] | area under concentration-response curve [2] | AC50 viability [3] [µM] | AC50 viability [4] [µM] | area under concentration-response curve [5] | AC50 viability [6] [µM] |
| --- | --- | --- | --- | --- | --- | --- |
| COC1=CC(c2cc3ccccc3[nH]2)=N/C1=C/c1[nH]c(C)cc1C | 410 | 495 | 37.2 | 33.2 |  |  |
| CN\1C(=O)/C(=C(\N=C1NC[C@@H](N)CC2=CC=CC=C2)C3=CC=NC=C3)C4=CC5=C(C=CC=C5)C=C4 | 484 | 571 | 29.5 | 37.2 |  |  |
| CC(C)Nc1cc(-c2c[nH]c(C(=O)N[C@H](CO)c3cccc(Cl)c3)c2)c(Cl)cn1 | 467 | 545 | 23.5 | 18.6 |  |  |
| COc1cc2c(N3CCN(C(=O)Nc4ccc(OC(C)C)cc4)CC3)ncnc2cc1OCCCN1CCCCC1 | 401 | 457 | 16.6 | 7.42 |  |  |
| O=C(NOCC1CC1)c1ccc(F)c(F)c1Nc1ccc(I)cc1Cl | 485 | 527 | 13.2 | 16.6 |  |  |
| O=C(CCCCCCC(=O)Nc1ccccc1)NO | 415 | 474 | 2.95 | 3.32 |  |  |
| CC(O)c1cc(C(=O)N[C@@H](C)Cn2ccc(-c3ccc(C#N)c(Cl)c3)n2)n[nH]1 (stereo partly specified) | 454 | 488 | 33.2 | 20.9 |  |  |
| CC(C)(O)CC[C@@H](O)[C@](C)(O)[C@H]1CC[C@@]2(O)C/3=C/C(=O)[C@@H]4C[C@@H](O)[C@@H](O)C[C@]4(C)[C@H]3CC[C@]12C | 192 | 233 | 0.132 | 0.372 |  |  |
| CC[C@]12\C=C/CN3CC[C@]4([C@@H](N(C)C5=C4C=C(C(=C5)OC)[C@]6(CC7C[C@H](CN(C7)CC8=C6[NH]C9=C8C=CC=C9)C(C)(F)F)C(=O)OC)[C@](O)([C@@H]1OC(C)=O)C(=O)OC)[C@H]23 (stereo partly specified) | 468 | 533 |  | 5.9 | 394 | 1.48 |
| CCN(CC)CCNc1ccc(C)c2sc3ccccc3c(=O)c12 | 447 | 489 |  | 20.9 | 456 | 20.9 |
| NC(=O)Nc1cc(-c2cccc(F)c2)sc1C(=O)N[C@H]1CCCNC1 | 397 | 432 |  | 8.33 | 410 | 2.35 |
| Cc1nc([C@](C)(O)CO)sc1-c1cnc(N)c(O[C@H](C)c2cc(F)ccc2-n2nccn2)c1 | 480 | 520 |  | 1.86 | 421 | 2.63 |
| Oc1cccc(-c2nc(N3CCOCC3)c3oc4ncccc4c3n2)c1 | 401 | 427 |  | 0.332 | 404 | 2.09 |
| C[C@H]1[C@H](OC(=O)CCC(=O)O)O[C@@H]2O[C@@]3(C)CC[C@H]4[C@H](C)CC[C@@H]1[C@@]24OO3 | 354 | 585 |  | 20.9 | 522 | 20.9 |
| O=C1c2ccccc2-[n+]2ccc3c([nH]c4ccccc43)c21 | 379 | 381 |  | 2.35 | 374 | 2.35 |
| CC/C(=C(/c1ccc(O)cc1)c1ccc(OCCNC)cc1)c1ccccc1 | 393 | 403 |  | 9.34 | 359 | 7.42 |
| C[C@H]1CNC(=O)c2cnn3ccc(nc23)N[C@H](C)c2cc(F)ccc2O1 | 523 | 475 |  | 6.61 | 454 | 2.35 |
| CCC[C@H](NC(=O)/C(C#N)=C/c1cccc(Br)n1)c1ccccc1 | 468 | 565 | 26.3 | 26.3 |  |  |
| CC(C)C(N)C(=O)OCC(CO)OC[N]1C=NC2=C1N\C(=N/C2=O)N (stereo unspecified) | 426 | 436 |  | 5.25 | 436 | 0.661 |
| Cn1ncc(Cl)c1-c1cc(C(=O)N[C@H](CN)Cc2ccc(F)c(F)c2)sc1Cl | 488 | 550 |  | 14.8 | 473 | 14.8 |
| NC(=O)Nc1sc(-c2ccc(F)cc2)cc1C(N)=O | 511 | 559 |  | 8.33 | 485 | 5.9 |
| C=C1C(=O)[C@@]23C(CC[C@@H]1[C@H]2O)[C@@]12CO[C@]3(O)[C@@H](O)[C@@H]1C(C)(C)CC[C@@H]2O (stereo partly specified) | 486 | 551 |  | 11.8 | 529 | 18.6 |
